We go through 3 compounds from US12552760B2, “Compounds for increasing the nicotinamide adenine dinucleotide in a subject and methods of use thereof” (The Board of Trustees of the University of Illinois, priority 2022, dated 2026).

Assay [1] concerns the target T1, NAMPT (Homo sapiens, UniProt P43490).
T1 construct: His6 (C); made in house
Description: NAMPT coupled enzyme activity assay (HTS coupled three-enzyme assay). It counts as biochemical. As to conditions: dose-response (FIG. 1B). An excerpt: NAMPT coupled enzyme activity assay. The NAMPT enzyme assay is based on conditions from Burgos and Schramm and adapted to include a cycling reaction to quantitate NAD^+ production colorimetrically^1. The assay follows the NAMPT-catalyzed production of NMN from substrates NAM and PRPP by coupling NMN formation to the NMNAT reaction, which produces NAD^+ from NMN and ATP. The NAD^+ is then cycled by alcohol dehydrogenase (ADH) and diaphorase to continuously produce WST-1 formazan, which can be detected at 450 nm. Assays are performed at 25° C. in clear 384-well plates, with a final assay volume of 30 μL, and contain the following: 50 mM HEPES, pH 7.5, 5 mM MgCl2, 50 mM NaCl, 0.01% Triton-X 100, 2.5 mM ATP, 40 μM PRPP, 1-500 μM NAM, 1.5 μL WST-1 (Roche Cell Proliferation Reagent), 1 U/mL ADH, 0.083 U/mL diaphorase, 1.5% ethanol, 1% DMSO, 30 nM NAMPT, and 7.4 nM purified human NMNAT1. N-terminal His6-NMNAT1 and C-terminal His6-NAMPT were overexpressed and purified by metal chelate affinity chromatography. Following assay assembly, well signals were measured continuously at 450 nm on a Tecan Infinite M200 plate reader for 1 h with intermittent shaking. Slopes of the linear portions of the reaction progress curves were recorded and corrected for background by subtracting the average slope of control wells containing NAMPT inhibitor FK866.
A high-throughput screen (HTS) of 22,000 compounds was performed to identify those that augment NAMPT enzymatic activity^38. Screening used a coupled three-enzyme assay to detect conversion of NAM to NAD^+, as previously described by our group^37. […] We also established assays in which to assess the ability of our compounds to mitigate neuronal oxidative stress.

The subject of another assay is THP-1 human monocytes. Description: Measurement of cellular NAD^+ levels in THP-1 cell cultures (NAD/NADH-Glo). The format is cell-based. Conditions: dose response study, 30 μM (FIG. 1A). As for the experimental part: Measurement of cellular NAD^+ levels in THP-1 cell cultures. Using FK-866 and NMN as negative and positive controls, respectively, we explored a number of cell lines to select a highly reproducible model system with good dynamic range. We optimized a commercial NAD-glo assay in the THP-1 human leukemic monocyte cell line in 96-well plates, measuring NAD^+ after incubation with test compounds for 24 hours. […] All cells were grown at 37° C., under 5% CO2 in a humidified incubator. Low passage THP-1 cells (37,500 cells/well) were seeded in 96-well plates and incubated at 37° C. and 5% CO2 for 1½ h prior to a 24 h treatment. All compounds were dissolved in DMSO, and final DMSO concentrations never exceeded 1%. The NAD^+ levels in the cells are measured using the NAD^+/NADH-Glo™ assay (Promega). The assays were performed in triplicate for each concentration and the IC50 values were determined from non-linear regression analysis of the dose-response curve generated in GraphPad Prism 9.

For assay [2], the system named is HT-22 mouse hippocampal cell line. Briefly: TNFα-induced ROS in HT-22 cells (MitoSOX). The format is cell-based. As to conditions: screened against 1 μg/mL TNFα (FIG. 2A). As for the experimental part:
Cell Culture and Drug Treatments. HT22 mouse hippocampal neuronal cells (a gift from the Salk Institute) were grown in Dulbecco's modified Eagle's medium (DMEM) containing 10% FBS and 1× Antibiotic-Antimycotic (ABAM). Cells were maintained in a humidified 5% CO2 atmosphere incubator at 37° C., and were passaged when 60-80% confluent (1-2 days) by removing media, rinsing with phosphate buffered saline (PBS), and enzymatically detaching with trypsin solution. New culture dishes were seeded with ¼ to ½ the cells from the previous dish.
All assays were performed using cells with passage number 12-50. The inner 60 wells of black-walled (Corning®3603/3604) 96-well plates were treated with poly D-lysine (30 μL/well) making sure to cover the entire well surface for 15-30 seconds and then washed thoroughly with sterile water (3×−200 μL/well). TNFα stock solutions (10 μg/mL, PBS (0.1% BSA)) were made, aliquoted, and stored at −80° C. Glutamate stock solutions were made fresh immediately before assay. All compound stock solutions (10 mM, DMSO) were made and stored at −20° C.
Cells were plated at a seeding density of 3,000-5,000 cells/well and allowed to incubate overnight. The next day (18-24 hours later) cells were pretreated with N-PAMs, carefully ensuring equivalent vehicle (DMSO/PBS) composition in each well. After 18-24 hours, stressors (glutamate or TNFα) were treated. Live cell count, ROS level, and total cell count were then assessed after another 18-24 hours.
ROS Detection. ROS levels were quantified using MitoSOX Red Mitochondrial Superoxide Indicator (Invitrogen). At treatment endpoint, the cell culture media was removed and replaced with phosphate buffered saline (PBS) containing 1 μM calcein-AM, 5 μM MitoSOX, and 10 μg/mL Hoechst dyes. Cells were incubated for 30-45 minutes and then dye-containing PBS was dumped and replaced with 100 μL/well fresh PBS. The plate was immediately analyzed in the Celigo Imaging Cytometer using the Live-Dead-Total protocol, where MitoSOX was used in place of propidium iodide. The cell counts and fluorescence intensities for living (calcein), MitoSOX-stained, and total (Hoechst) were acquired. MitoSOX average mean fluorescence intensity (“dead” average mean intensity) was used to quantify mitochondrial ROS. All readouts used were transformed into fold-change over vehicle treatment for visualization.
We set out to design assays representing the connection between OS and the multifaceted pathophysiology of aging and ND. We assessed multiple treatments in several cell lines to model OS induced by diverse factors such as neuroinflammatory signaling, neurotransmitter signaling, and direct oxidant species. Assay development highlighted the neuronal HT-22 mouse hippocampal cell line as most robust for these purpose s, and inflammatory cytokine TNFα as being a reliable and disease-relevant method for inducing ROS generation.

Assay [3] concerns the target T1, NAMPT. Description: NP-A3-B2:NAMPT co-crystal structure (X-ray diffraction). Conditions: NP-A3-B2, NAM and NAMPT; 1.3-1.5 Å resolution. Here is the method:
X-ray diffraction crystallography. Crystals of NAMPT complexed with NAM and N-PAM were grown by hanging drop vapor diffusion at 16° C. Prior to crystallization, 11 mg/mL NAMPT protein was incubated with 10 mM NAM and 1 mM compound for 30 min on ice. Crystals of the complex were grown by mixing 1-2 μL of NAMPT complex with 2 μL of reservoir solution containing 0.1 M Tris-HCl, pH 8, 0.1 M KCl, and 24-28% PEG 2000 MME or 0.1 M Tris-HCl, pH 8.5, 0.2 M NaCl, 20% glycerol and 13-18% PEG 3350. Crystals grew overnight from the PEG 2000 MME conditions and were used to streak seed drops of NAMPT complex equilibrating against the PEG 3350 conditions.
Data collection and structure refinement. The glycerol present in the crystallization solution was sufficient to cryo-protect crystals, which were flash-cooled in liquid nitrogen. Data were collected on a MAR300 detector at 0.979 Å at the Life Sciences Collaborative Access Team beamline 21-ID-F at the Advanced Photon Source, Argonne National Laboratory. Data indexing, integration, and scaling were performed using XDS, and phases were determined by molecular replacement using Molrep and a NAMPT-NAM co-crystal structure (PDB entry: 2E5D) as search model. Rigid body refinement followed by iterative rounds of restrained refinement and model building were performed with Phenix and Coot.

Assay [4] relates to APPSwe/PSEN1dE9 N2A cells. Conditions: 10 mM, 72 h; Long, A. N. et al. 2015; cited from earlier work.
The subject of assay [5] is hSOD1^G93A mouse derived astrocytes and motor neurons. As to conditions: NR or NMN, 5 mM, 24-72 h; Harlan, B. A. et al. 2019; cited from earlier work.
For a further assay, the system named is CD1 mice. As to conditions: 300 mg/kg 30 minutes post ICH from tail veil for 24 h or 7 days with (300 mg/kg/d); Wei, C. C. et al. 2017; cited from earlier work.
For assay [6], the system named is APPSwe/PSEN1dE9 mice. As to conditions: 100 mg/kg (s.c.) every other day for 28 days; Yao Z. et al. 2017; cited from earlier work.
A further assay concerns Wistar rats. As to conditions: 500 mg/kg/d (i.p.) 10 days; hippocampal slices treated with 10 μM oAβ1-42 for 6 h +/− 1 mM NMN; Wang, X. et al. 2016; cited from earlier work.
Assay [7] deals with APPSwe/PSEN1dE9 mice. As to conditions: 100 mg/kg every other day for 28 days; Long, A. N. et al. 2015; cited from earlier work.
The next assay deals with CL2355 worms. Conditions: 5 mM, 2 nematode generations; Fang, E. F. et al. 2019; cited from earlier work.
The subject of the next assay is Sprague-Dawley rats. As to conditions: 100 mg/kg (i.p.) every other day for 3 months; Chandrasekaran, K. et al. 2020; cited from earlier work.

Structures are written as SMILES.

What is called EC50 is the concentration at which the effect is half-maximal.

T1 sequence (P43490 whole entry): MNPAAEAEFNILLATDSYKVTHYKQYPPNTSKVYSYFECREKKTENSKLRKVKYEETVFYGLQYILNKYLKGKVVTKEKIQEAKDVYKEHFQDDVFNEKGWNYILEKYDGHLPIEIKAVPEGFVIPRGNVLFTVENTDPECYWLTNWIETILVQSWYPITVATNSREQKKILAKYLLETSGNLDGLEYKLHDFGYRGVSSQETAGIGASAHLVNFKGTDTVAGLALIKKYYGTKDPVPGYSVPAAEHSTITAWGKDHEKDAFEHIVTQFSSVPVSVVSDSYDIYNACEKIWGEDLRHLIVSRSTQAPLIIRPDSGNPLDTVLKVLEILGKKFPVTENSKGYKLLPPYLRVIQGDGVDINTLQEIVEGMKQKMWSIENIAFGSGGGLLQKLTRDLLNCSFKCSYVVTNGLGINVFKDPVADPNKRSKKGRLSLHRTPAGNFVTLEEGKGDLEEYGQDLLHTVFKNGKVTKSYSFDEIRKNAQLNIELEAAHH

Regarding `COc1ccc(CN(CCC2(C(C)C)CCOC(C)(C)C2)C(=O)c2ccco2)cc1` (stereo not drawn) [NP-A3-B2, N-[(4-Methoxyphenyl)methyl]-N-[2-[tetrahydro-2,2-dimethyl-4-(1-methylethyl)-2H-pyran-4-yl]ethyl]-2-furancarboxamide], the half-maximal effective concentration (EC50) on NAMPT [1] (NAMPT activation) is 4.05 µM. The compound further displayed an Amax at NAMPT [1] of 1.85 fold. For the same compound, in the assay on THP-1 human monocytes, the “NAD^+ fold over control” value is on record as 1.18 fold and the “increase in NAD^+ over control” value is reported as 18%. Further, in assay [2], the “effect on ROS levels across tested concentrations” value is “little effect until 40 μM”. Also, at NAMPT [3], the “binding mode in co-crystal structure” value is “allosteric binding of the hit to the NAMPT rear channel”.
In the case of `NC(=O)c1ccc[n+]([C@@H]2O[C@H](COP(=O)([O-])OP(=O)(O)OC[C@H]3O[C@@H](n4cnc5c(N)ncnc54)[C@H](O)[C@@H]3O)[C@@H](O)[C@H]2O)c1` [NAD^+, Nicotinamide adenine dinucleotide], the mitochondrial deficits result in assay [4] was “Reversed”.
In the case of `NC(=O)c1ccc[n+]([C@@H]2O[C@H](COP(=O)([O-])O)[C@@H](O)[C@H]2O)c1` [NMN, nicotinamide mononucleotide], the “Nrf2 mediated Antioxidant Response Element activation” value in assay [5] is recorded as “Increased Nrf2”. Further, in the assay on CD1 mice, the Neuroprotective entry was “Neuroprotective”; the acute brain injury result is on record as “Protected against”; the “motor function recovery over 7 days” value was “Enhanced motor”; the “oxidative stress and neuroinflammation” value is given as “Reduced”. Further, in the assay with APPSwe/PSEN1dE9 mice [6], the APP processing result is on record as “Biased APP to α”, the Aβ aggregation result is “· Decreased Aβ”, the cognitive impairments entry is “Prevented” and the neuroinflammation result is listed as “Decreased”. Further, the synaptic loss entry with APPSwe/PSEN1dE9 mice [6] is “Prevented”. For the same compound, in the assay on Wistar rats, the LTP entry was “Improved LTP”; the “NAD^+ and ATP” value is reported as “· Restored NAD^+”; the Neuroprotection entry is given as “Neuroprotection”; the oxidative stress entry was “Attenuated”. Moreover, the “spatial learning and memory” value in the assay on Wistar rats was “Improved spatial”. Also, in the assay with APPSwe/PSEN1dE9 mice [7], the APP levels result is “Decreased APP” and the mitochondrial deficits entry is reported as “Reversed”. In the assay with CL2355 worms, the “cognitive decline and memory impairment” value is reported as “Ameliorated”. Moreover, in the assay on Sprague-Dawley rats, the Neuroprotective entry is “Neuroprotective”; the “brain NAD^+, metabolites, and neurotransmitters” value is listed as “Normalized brain”; the “hippocampal CA1 volume” value is “Preserved”; the memory result is on record as “Improved memory”. In addition, in the assay with Sprague-Dawley rats, the mitochondrial function entry is reported as “Improved”.
